Results from patent US20260335398A1, “METHODS FOR TREATING PANCREATIC CANCER WITH A COMBINATION OF DES-METHYL PATEAMINE A AND A CLASS I HDAC INHIBITOR” (Baylor University, priority 2023, published 2026).

Columns and labels:
Assay type in all cases: cell-based
MIA PaCa-2 cells [1] = experiment: Metabolic flux analysis, basal mitochondrial respiration (OCR) (FIG. 8C left); settings: MIA PaCa-2, total 18 h
Description: FIG. 8C left panel presents the results of metabolic flux analysis showing basal mitochondrial respiration (OXPHOS) (oxygen consumption rate, OCR) in MIA PaCa-2 cells following treatment with combinations or single drugs. Treatment was for a total of 18 h, as mentioned in FIG. 8A. Statistical significance was determined by one-way ANOVA, ***p value<0.001, *p value<0.01. FIG. 8C right panel presents the results of quantification of glutamine consumption. Cells were treated as mentioned in FIG. 8A. Prior to the metabolic measurements cells were starved of glucose, glutamine, and pyruvate for 1-hour after which glutamine was added and response was recorded as ΔOCR (i.e. OCR before and after glutamine addition). Statistical significance was determined by one-way ANOVA, ****p value<0.0001, ***p value<0.0005.
Because reprograming/augmentation of cellular metabolism by c-MYC is known to support oncogenesis, the Seahorse XF analyzer was used to assess the impact of the treatments on c-MYC-driven metabolism including ATP production, glycolysis, and mitochondrial oxidative phosphorylation (OXPHOS). Extracellular acidification rates, also known as proton efflux rate (PER), were measured for glycolysis and mitochondrial oxygen consumption rates (OCR) for OXPHOS. We utilized the 6 h exposure followed by 18 h washout strategy for romidepsin described earlier. […]

MIA PaCa-2 and KLM cells = experiment: RNA-seq gene expression analysis (FIG. 9A)
Description: Plots show a significant increase in the overall gene expression in the cells treated with the combination. Cells treated for a total of 18 h (i.e., 6-hour romidepsin followed by 12-hour incubation with 2 nM DMPatA (combo) or without (Romi alone)).
To gain further insight into the effects of the combination treatment gene expression was profiled in MIA PaCa-2 and KLM cells treated with vehicle, the single agents, or the combination for a total of 18 h (i.e., 6-hour romidepsin treatment followed by 12-hour washout with 2 nM DMPatA or without), probing whether alterations observed following combination treatment could be explained by changes in gene expression.
Total RNA was extracted using RNeasy mini kit (Qiagen) from cells collected after 18 hours (6 hours romidepsin (15 nM)+12 hours washout with or without DMPatA (2 nM)) incubation with or without drugs. RNA quantitation and quality were assessed by the Agilent Bioanalyzer 2100 at the Molecular Pathology Shared Resource of the Herbert Irving Comprehensive Cancer Center at Columbia University (mBank). RNA library preparation and sequencing was performed at Columbia University's Sulzberger Genome Center. Briefly, poly-A pull-down was used to enrich mRNAs from total RNA samples, followed by library construction using Illumina TruSeq chemistry. Libraries were then sequenced using Illumina NovaSeq 6000. For the DESeq2 (v 1.40.2) analysis the data were imported with tximport in DESeq2 and a dds object was generated. Variance stabilizing transformation was used on the object and the output was used for the heatmap and PCA plots. Abundance of transcripts was estimated by pseudoalignment using kallisto, and downstream analysis was performed using R (v4.3.1) and the indicated packages. […] Differentially expressed genes were determined using linear regression method (limma v3.56.2), and genes with |log 2FC|≥1 and adjusted p-value <0.05 were plotted accordingly on volcano plots and heatmap (ggplot2 v3.5.0 and ComplexHeatmap v2.16.0). […]

MIA PaCa-2 cells [2] = experiment: Cellular acetyl-CoA levels by LC-MS (FIG. 8D); settings: MIA PaCa-2, total 18 h
Description: FIG. 8D compares cellular acetyl-CoA levels measured in MIA PaCa-2 cells using LC-MS following treatment of cells with the combination or with single agents as mentioned in FIG. 8A. At least three biological replicate experiments were carried out. Statistical significance was determined by two-way ANOVA, ****p value<0.0001, ***p value<0.0004.
Five million cells were seeded in 150 mm cell culture dishes. Cells were treated with combination or single agents for a total of 18 h (6-+12-hours). Following treatment cells were harvested on ice, washed, and scraped out under liquid nitrogen. Prior to extraction an aliquot of the cell pellet was collected and subjected to protein quantification.
For Acetyl-CoA extraction, a 100 μL aliquot of the thawed pellet was spiked with ^13C2-acetyl-CoA as an internal standard, extracted with 400 μL of methanol, vortexed, and centrifuged at […] for 5 minutes at 4 °C. The methanol supernatant (400 μL) was then dried under nitrogen at 35 °C and reconstituted in 100 μL of 10 mM ammonium bicarbonate (pH 9.5) for LC/MS analysis. Calibration curve standards were similarly prepared as the cell pellets. Acetyl-CoA quantification by LC/MS was performed on an Agilent 1290 Infinity UHPLC/6495 triple quadrupole mass spectrometer, using multiple reaction monitoring. […]

For C/C=C1\NC(=O)[C@H]2CSSCC/C=C/[C@H](CC(=O)N[C@H](C(C)C)C(=O)N2)OC(=O)[C@H](C(C)C)NC1=O [romidepsin], the “mitochondrial function (OCR)” value (MIA PaCa-2 cells [1]) was “impaired mitochondrial function”, the “change in gene expression” value (MIA PaCa-2 and KLM cells; romidepsin 15 nM 6 h, with or without DMPatA 2 nM) was “only a modest increase in gene expression” and the “number of differentially expressed genes (DEGs)” value (MIA PaCa-2 and KLM cells; total 18 h (6 h romidepsin 15 nM + 12 h with/without DMPatA 2 nM), |log2FC|≥1, adjusted p<0.05) was 1551 DEGs. For the same compound, the “cellular acetyl-CoA levels” value (MIA PaCa-2 cells [2]) was “significant reduction”.
